From ChEMBL document CHEMBL1130654, “New phthalimide derivatives with potent analgesic activity: II” (1998)

Key:
Assay type in all cases: functional
[1] = test system: Mus musculus; assay: Inhibition of acetic acid induced writhing in mice at dose of 1.56 mg/kg
[2] = test system: Mus musculus; assay: Inhibition of acetic acid induced writhing in mice at dose of 3.12 mg/kg
[3] = test system: Mus musculus; assay: Inhibition of acetic acid induced writhing in mice at dose of 6.25 mg/kg
[4] = test system: Mus musculus; assay: Inhibition of acetic acid induced writhing in mice at dose of 12.5 mg/kg
[5] = test system: Mus musculus; assay: Inhibition of acetic acid induced writhing in mice at dose of 25.0 mg/kg
[6] = test system: Mus musculus; assay: Inhibition of acetic acid induced writhing in mice at dose of 25 mg/kg
[7] = test system: Mus musculus; assay: Compound was tested for hyperalgesia in mice induced by formalin expressed as time of licking at late phase(up to 30 min) at dose 10 mg/kg
[8] = test system: Mus musculus; assay: Compound was tested for hyperalgesia in mice induced by formalin expressed as time of licking at initial phase(up to 5 min) at dose 10 mg/kg
[9] = test system: Mus musculus; assay: Compound was tested for hyperalgesia in mice induced by formalin expressed as time of licking at initial phase(up to 5 min) at 400 mg/kg
[10] = test system: Mus musculus; assay: Inhibition of acetic acid induced writhing in mice at dose of 200 mg/kg
[11] = test system: Mus musculus; assay: Inhibition of acetic acid induced writhing in mice at dose of 50 mg/kg
[12] = test system: Mus musculus; assay: Inhibition of acetic acid induced writhing in mice at dose of 100 mg/kg
[13] = test system: Mus musculus; assay: Compound was tested for hyperalgesia in mice induced by formalin expressed as time of licking at late phase(up to 30 min) at 400 mg/kg
[14] = test system: Mus musculus; assay: Compound was tested for hyperalgesia in mice induced by formalin expressed as time of licking at late phase(up to 30 min) at dose 25 mg/kg
[15] = test system: Mus musculus; assay: Compound was tested for hyperalgesia in mice induced by formalin expressed as time of licking at initial phase(up to 5 min)at dose 25 mg/kg

| SMILES | inhibition in vivo at 1.56 mg/kg [1] | ID50 [2] | inhibition in vivo at 3.12 mg/kg [2] | inhibition in vivo at 6.25 mg/kg [3] | inhibition in vivo at 12.5 mg/kg [4] | also measured |
| --- | --- | --- | --- | --- | --- | --- |
| Cc1cccc(-c2noc(CN3C(=O)c4ccccc4C3=O)n2)c1 | 25.5% | 2.9 | 67.1% | 79.2% | – | – |
| Cc1ccc(-c2noc(CN3C(=O)c4ccccc4C3=O)n2)cc1 | – | – | 16.1% | 62.4% | 72.5% | ID50 [3]: 7.2 |
| COc1ccc(-c2noc(CN3C(=O)c4ccccc4C3=O)n2)cc1 | – | – | 20.7% | 41.9% | 53.3% | ID50 [4]: 14.9; inhibition in vivo at 25 mg/kg [5]: 62.6% |
| O=C1c2ccccc2C(=O)N1Cc1nc(-c2ccc(Cl)cc2)no1 | – | – | – | 16.3% | 35.1% | ID50 [4]: 20.3; inhibition in vivo at 25 mg/kg [6]: 59.6% |
| CN1CC[C@]23c4c5ccc(O)c4O[C@H]2[C@@H](O)C=C[C@H]3[C@H]1C5 [MORPHINE] | – | – | – | – | – | Time of licking [7]: 0 s; Time of licking [8]: 41 s |
| O=C1c2ccccc2C(=O)N1Cc1nc(-c2ccc([N+](=O)[O-])cc2)no1 | 29.8% | 4.1 | 47.4% | 62.9% | – | – |
| CC(=O)Oc1ccccc1C(=O)O [ASPIRIN] | – | – | – | – | – | Time of licking [9]: 48 s; inhibition in vivo at 200 mg/kg [10]: 74%; inhibition in vivo at 50 mg/kg [11]: 38.2%; ID50 [12]: 80.8; inhibition in vivo at 100 mg/kg [12]: 61.7%; Time of licking [13]: 0 s |
| O=C1c2ccccc2C(=O)N1Cc1nc(-c2ccccc2)no1 | 38.9% | 2.2 | 67.1% | 73.8% | – | Time of licking [14]: 143 s; Time of licking [15]: 84 s |
| Cc1ccccc1-c1noc(CN2C(=O)c3ccccc3C2=O)n1 | 12.1% | 3.1 | 76.5% | 80.5% | – | – |
